Legend:
[1] = test system: MM (MM1S), PC (ASPC-1), and CC (HCT 116) cell lines; test: ctDNA integration with NHEJ, alternative pathway and transposase inhibitors (Example 25); assay type: cell-based, human; conditions: 2 hours pretreatment; DNA-PKCS inhibitor I 30 μM, KU-55933 10 μM, raltegravir 100 nM; compared to control or NU1025 200 μM
Method: About 10^6 MM1s, PANC1 and HCT-116 cells were treated for 2 hours with inhibitors of the non-homologous end join (NHEJ) repair system such as KU-55933 (ATM inhibitor, 10 μM) and DNA-PKCS inhibitor I, (30 μM), alternative repair pathway such as a poly ADP ribose polymerase inhibitor NU1025 (PARP, 200 μM) and an integrase/transposase inhibitor (raltegravir, 100 nM). After treatment with inhibitors, rhodamine-labeled ctDNA construct was added to the culture media for 24 hours. Cells were then arrested, and chromosome spreads were obtained as noted above. Integration site counts per cell were obtained after counting a minimum of 20 metaphases (FIG. 32).
Transposable elements (TEs) can play an important role in the mechanism of HGT observed in prokaryotes and few cases of eukaryotes (insects and plants). Thus, it was investigated whether inhibition of transposable elements could reduce or prevent ctDNA integration into chromatids. To that end, cells were treated for 2 hours with raltegravir, a transposase inhibitor, before the addition of ctDNA into culture media. For controls, inhibitors of ATM (KU-55933), DNPkc (DNA-PKCS inhibitor I) and PARP (NU1025) were used. […]

[2] = test system: chromosomes of plasma cells; test: Incorporation of labeled ctDNA into chromosomes with NHEJ, PARP and integrase inhibitors (Example 6); assay type: cell-based, human; conditions: DNA-PKCS inhibitor I 200 nM; KU-55933; raltegravir 30 nM; NU1025 200 nM
Method: For further evaluation, chromosome spreads from MM and lung cancer cell lines were cultured with covalently labeled ctDNA obtained from patients with MM.

Row | Structure (SMILES) | integration of ctDNA (rhodamine bands into the chromosomes) [1] | Incorporation of labeled ctDNA into chromosomes [2]
1 | O=c1cc(-c2cccc3c2Sc2ccccc2S3)oc(N2CCOCC2)c1 [KU-55933] | significantly reduced | reduced significantly
2 | Cc1nc2c(O)cccc2c(=O)[nH]1 [NU1025] | – | less so
3 | Cc1nnc(C(=O)NC(C)(C)c2nc(C(=O)NCc3ccc(F)cc3)c(O)c(=O)n2C)o1 [raltegravir] | significantly reduced | reduced significantly

— patent publication US12453740B2, “Nucleic acids for cell recognition and integration” (Emory University, priority 2018, dated 2025)
